This is an account of results in US20080051418A1, “Arylalkanoic Acid Derivative” (priority 2004, published 2008).

The structures appear in SMILES notation. pEC50: −log10 of the molar value. Like-named read-outs stand apart in the source and are kept apart here.

Series [1] has as its system KKA^y mice. Nature of the series: Blood glucose and blood lipid (triglyceride) lowering action in mice. Type of series: in vivo. To be noted: Mus musculus, po, 96 h, 4 days, non-administration group = 100%; for inhibition in vivo at 0.005 %: 0.005% in powder diet; for inhibition in vivo at 0.01 %: 0.01% in powder diet (compound of Example 105). In outline:
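KKA^y type-2 diabetic mice (9 to 12 weeks old, 5 per group) were fed compound mixed into powder diet at 0.005% or 0.01% ad libitum for 4 days. Plasma from orbital venous plexus blood was assayed for glucose and triglyceride by enzymatic methods.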

In series [2] the test system is KKA^y mice. The series can be described thus: Plasma antiatherogenic index increasing action in mice. Type of series: in vivo. To be noted: Mus musculus, po, 96 h, 4 days, increase rate of (HDL cholesterol/total cholesterol)×100, non-administration group = 100%; for change in vivo at 0.005 %: 0.005% in powder diet. As for the experimental part:
The test compound was mixed with a powder diet (CE-2, CLEA JAPAN, INC.) at a proportion of 0.005% (0.01% for the compound of Example 105) and freely given to KKA^y mice (9 to 12-week-old, 5 mice per group) which are obesity-insulin independent diabetes mellitus (type-2 diabetes) models, for 4 days. During this period, water was freely given. The blood was drawn from fundus and the components were measured using the plasma separated from the blood. The total cholesterol was quantified using L Type Wako cholesterol (Wako Pure Chemical Industries, Ltd.). In addition, an HDL cholesterol precipitation reagent (Wako Pure Chemical Industries, Ltd.) was added to a part of the plasma to allow precipitation of a non-HDL lipoprotein, and the cholesterol (HDL cholesterol) of the supernatant was measured. The plasma antiatherogenic index [(HDL cholesterol/total cholesterol)×100] was calculated from these cholesterol values.

A further series addresses T1, PPARγ-RXRα heterodimer (Homo sapiens, UniProt P37231).
T1 construct: expressed in transfected cells; host or cells: CHO-K1
T1 sequence (P37231 1-505): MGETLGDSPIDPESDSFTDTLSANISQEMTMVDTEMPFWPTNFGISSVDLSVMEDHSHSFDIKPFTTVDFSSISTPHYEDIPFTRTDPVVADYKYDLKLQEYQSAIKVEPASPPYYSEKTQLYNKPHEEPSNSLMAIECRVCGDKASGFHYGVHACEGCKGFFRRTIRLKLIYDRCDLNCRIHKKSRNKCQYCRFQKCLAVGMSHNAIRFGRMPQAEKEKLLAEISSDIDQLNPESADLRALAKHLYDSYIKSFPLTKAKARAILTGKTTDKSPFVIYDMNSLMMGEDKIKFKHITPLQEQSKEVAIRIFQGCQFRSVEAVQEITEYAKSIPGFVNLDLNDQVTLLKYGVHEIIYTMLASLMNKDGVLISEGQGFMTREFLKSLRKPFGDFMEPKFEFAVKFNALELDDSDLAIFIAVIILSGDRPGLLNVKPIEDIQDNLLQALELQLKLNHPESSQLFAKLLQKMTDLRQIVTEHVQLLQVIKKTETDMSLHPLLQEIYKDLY
T1 sequence (P19793 1-462 partner): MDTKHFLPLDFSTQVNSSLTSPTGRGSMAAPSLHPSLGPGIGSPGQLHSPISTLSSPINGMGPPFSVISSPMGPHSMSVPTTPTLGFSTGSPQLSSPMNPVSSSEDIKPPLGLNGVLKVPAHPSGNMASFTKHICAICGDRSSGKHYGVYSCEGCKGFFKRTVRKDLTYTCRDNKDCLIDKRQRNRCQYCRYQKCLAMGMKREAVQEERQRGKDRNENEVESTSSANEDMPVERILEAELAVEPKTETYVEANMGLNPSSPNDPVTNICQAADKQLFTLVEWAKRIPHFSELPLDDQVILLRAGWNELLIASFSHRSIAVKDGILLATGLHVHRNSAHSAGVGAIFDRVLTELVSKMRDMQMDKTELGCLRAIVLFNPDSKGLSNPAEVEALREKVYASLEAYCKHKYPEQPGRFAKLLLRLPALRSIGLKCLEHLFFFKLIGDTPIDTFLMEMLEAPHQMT
Nature of the series: PPARγ-RXRα heterodimer ligand activity (luciferase reporter). To be noted: PPARγ:RXRα:4ERPP/CHO-K1 cells, 18-24 hr, concentration showing 50% of the maximum induction rate. Type of series: cell-based. In outline: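 CHO-K1 cells carrying PPARγ, RXRα and a 4ERPP luciferase reporter, exposed to compound 18–24 h at 37 °C in Ham F12 with 0.1% fatty acid-free BSA. Luciferase induction expressed relative to untreated cells (= 1). EC50 is concentration giving 50% of maximal induction.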

Another series concerns the target T2, PPARδ-RXRα heterodimer (Homo sapiens, UniProt Q03181).
T2 construct: expressed in transfected cells
T2 sequence (Q03181 1-441): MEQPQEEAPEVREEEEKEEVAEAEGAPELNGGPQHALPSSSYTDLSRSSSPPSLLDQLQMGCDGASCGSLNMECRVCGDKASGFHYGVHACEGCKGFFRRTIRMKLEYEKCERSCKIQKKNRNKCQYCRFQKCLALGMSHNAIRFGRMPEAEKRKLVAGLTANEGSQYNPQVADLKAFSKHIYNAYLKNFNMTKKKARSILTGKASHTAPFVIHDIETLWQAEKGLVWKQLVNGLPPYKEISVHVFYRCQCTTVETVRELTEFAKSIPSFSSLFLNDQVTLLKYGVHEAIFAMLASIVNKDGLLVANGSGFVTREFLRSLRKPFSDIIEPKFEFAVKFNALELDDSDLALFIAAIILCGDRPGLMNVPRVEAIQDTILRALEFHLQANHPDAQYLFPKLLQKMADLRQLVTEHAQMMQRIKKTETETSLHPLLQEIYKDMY
T2 sequence (P19793 1-462 partner): T1 sequence (P19793 1-462 partner)
Nature of the series: PPARδ-RXRα heterodimer ligand activity (luciferase reporter). To be noted: transformant of Reference Example 9a of WO03/099793, 36-48 hr, concentration showing 50% of the maximum induction rate. Type of series: cell-based. As for the experimental part: The transformant described in Reference Example 9a of WO03/099793 was suspended in a DMEM medium [manufactured by Life technologies, Inc., US] containing 0.1% fatty acid-free bovine serum albumin (BSA) (manufactured by Wako Pure Chemical Industries, Ltd.), and inoculated to each well of a 96 well white plate [manufactured by Corning Coster Corporation, US] by 80 μl to 1×10^4 cells/well. Then, the test compound (20 μl) was added, and cultured under the conditions of 37° C., 5% CO2 for 36-48 hr. The medium was removed from the 96 well white plate, 40 μl of PicaGene LT 7.5 (manufactured by Wako Pure Chemical Industries, Ltd.) diluted 2-fold with HBSS (HANKS' BALANCED SALT SOLUTION) [manufactured by BIO WHITTAKER, US] was added and, after stirring, the luciferase activity was determined using the 1420 ARVO Multilabel Counter [manufactured by PerkinElmer, US].
The induction rate was calculated from the luciferase activity of each test compound based on the luciferase activity of the test compound non-administration group as 1. The test compound concentration and the induction rate were analyzed by PRISM [manufactured by GraphPad Software, Inc., US] to calculate EC50 value (compound concentration showing 50% of the maximum value of induction rate) of the test compound.

Where [3] appears, read: lowering rate of plasma glucose, read-out: hypoglycemic action (%).
The mark [4] stands for this setting: lowering rate of plasma triglyceride, read-out: hypolipidemic action (%).

`COc1ccccc1Cn1nc(OC(C)C)cc1CCCOc1c(CC(=O)O)cccc1OC` [Example 62, (2-{3-[3-isopropoxy-1-(2-methoxybenzyl)-1H-pyrazol-5-yl]propoxy}-3-methoxyphenyl)acetic acid]: the inhibition in vivo at 0.005 % is 48% in the series with KKA^y mice [1] (setting [3]) and 61% in the series on KKA^y mice [1] (setting [4]). In the series with KKA^y mice [2], this compound returned a change in vivo at 0.005 % of 13%. Further, on PPARγ-RXRα heterodimer, the pEC50 is 7.47.

Compound `COc1cccc(CC(=O)O)c1OCCCc1cc(OC(C)C)nn1Cc1ccc(C(F)(F)F)cc1` [Example 51, [2-(3-{3-isopropoxy-1-[4-(trifluoromethyl)benzyl]-1H-pyrazol-5-yl}propoxy)-3-methoxyphenyl]acetic acid] showed a melting point of 116 to 117 °C. Besides, the change in vivo at 0.005 % in the series with KKA^y mice [2] was found to be 15%. For the same compound, on PPARγ-RXRα heterodimer, the pEC50 was 7.41.

Turning to `CCCOc1cc(CCCOc2c(CC(=O)O)cccc2OC)n(Cc2ccc(Cl)cc2Cl)n1` [Example 57, (2-{3-[1-(2,4-dichlorobenzyl)-3-propoxy-1H-pyrazol-5-yl]propoxy}-3-methoxyphenyl)acetic acid], in the series on KKA^y mice [2], the change in vivo at 0.005 % is 15%. Further, the negative logarithm of the EC50 (pEC50) at PPARγ-RXRα heterodimer is 8.85; at PPARδ-RXRα heterodimer it was 7.68.

For the compound `CCn1nc(OCCCc2ccc(OC(C)C)cc2Oc2ncc(C(F)(F)F)cc2Cl)cc1CCC(=O)O` [Example 141, 3-{3-[3-(2-{[3-chloro-5-(trifluoromethyl)pyridin-2-yl]oxy}-4-isopropoxyphenyl)propoxy]-1-ethyl-1H-pyrazol-5-yl}propanoic acid], the melting point was 73 to 74 °C. In addition, the inhibition in vivo at 0.005 % in the series on KKA^y mice [1] (setting [3]) was 44%. Also, the inhibition in vivo at 0.005 % in the series on KKA^y mice [1] (setting [4]) worked out at 41%. Further, the pEC50 on PPARγ-RXRα heterodimer is 8.80. The compound also had a pEC50 on PPARδ-RXRα heterodimer of 8.16.

In the case of `CCn1cc(CC(=O)O)c(OCCCc2cc(OC(C)C)nn2Cc2ccc(Cl)cc2Cl)n1` [Example 22, (3-{3-[1-(2,4-dichlorobenzyl)-3-isopropoxy-1H-pyrazol-5-yl]propoxy}-1-ethyl-1H-pyrazol-4-yl)acetic acid], the figures for the inhibition in vivo at 0.005 % in the series with KKA^y mice [1] (setting [3]) and in the series with KKA^y mice [1] (setting [4]) were 49% and 53%, respectively. For the same compound, the change in vivo at 0.005 % with KKA^y mice [2] was found to be 12%. The negative logarithm of the EC50 (pEC50) on PPARγ-RXRα heterodimer was 7.82.

Compound `CC(C)Oc1ccc(CCCOc2cc(CCC(=O)O)n(-c3ccccc3)n2)c(Oc2ncc(C(F)(F)F)cc2Cl)c1` [Example 136, 3-{3-[3-(2-{[3-chloro-5-(trifluoromethyl)pyridin-2-yl]oxy}-4-isopropoxyphenyl)propoxy]-1-phenyl-1H-pyrazol-5-yl}propanoic acid] yielded a melting point of 86 to 88 °C. In the series with KKA^y mice [1] (setting [3]), the inhibition in vivo at 0.005 % was found to be 57%. In the series with KKA^y mice [1] (setting [4]), the inhibition in vivo at 0.005 % amounted to 38%. The compound further showed a pEC50 on PPARγ-RXRα heterodimer of 9.38. Also, the pEC50 on PPARδ-RXRα heterodimer was 8.60.

As to `COc1cccc(CC(=O)O)c1OCCCc1cc(OC(C)C)nn1Cc1ccc(Cl)cc1Cl` [Example 16, (2-{3-[1-(2,4-dichlorobenzyl)-3-isopropoxy-1H-pyrazol-5-yl]propoxy}-3-methoxyphenyl)acetic acid], the values for the inhibition in vivo at 0.005 % in the series with KKA^y mice [1] (setting [3]) and in the series on KKA^y mice [1] (setting [4]) were 57% and 28%, respectively. Also, in the series with KKA^y mice [2], the change in vivo at 0.005 % stood at 13%. The pEC50 on PPARγ-RXRα heterodimer was 8.64; at PPARδ-RXRα heterodimer it was 7.85.

Consider `CCn1cc(CC(=O)O)c(OCCCc2ccc(OC(C)C)cc2Oc2ccc(C(F)(F)F)cn2)n1` [Example 108, {1-ethyl-3-[3-(4-isopropoxy-2-{[5-(trifluoromethyl)pyridin-2-yl]oxy}phenyl)propoxy]-1H-pyrazol-4-yl}acetic acid], for which the change in vivo at 0.005 % in the series on KKA^y mice [2] was 12%.

Compound `CCCOc1cc(CCCOc2c(CC(=O)O)cccc2OC)n(Cc2ccccc2)n1` [Example 56, {2-[3-(1-benzyl-3-propoxy-1H-pyrazol-5-yl)propoxy]-3-methoxyphenyl}acetic acid] registered a change in vivo at 0.005 % in the series on KKA^y mice [2] of 12%.

In the case of `COCOc1ccc(CCCOc2c(CC(=O)O)cccc2OC)c(Oc2ccc(C(F)(F)F)cn2)c1` [Example 105, {3-methoxy-2-[3-(4-(methoxymethoxy)-2-{[5-(trifluoromethyl)pyridin-2-yl]oxy}phenyl)propoxy]phenyl}acetic acid], the inhibition in vivo at 0.01 % with KKA^y mice [1] (setting [3]) and in the series with KKA^y mice [1] (setting [4]) was 64% in each case. Also, the change in vivo at 0.01 % in the series on KKA^y mice [2] (0.01% in powder diet (compound of Example 105)) stood at 13%.

`COc1cccc(CC(=O)O)c1OCCCc1ccc(OC(C)C)cc1Oc1ccc(C(F)(F)F)cn1` [Example 107, {2-[3-(4-isopropoxy-2-{[5-(trifluoromethyl)pyridin-2-yl]oxy}phenyl)propoxy]-3-methoxyphenyl}acetic acid] yielded a change in vivo at 0.005 % in the series with KKA^y mice [2] of 13%.

In turn, `COCCOc1ccc(CCCOc2nn(C)cc2CC(=O)O)c(Oc2ncc(C(F)(F)F)cc2Cl)c1` [Example 122, (3-{3-[2-{[3-chloro-5-(trifluoromethyl)pyridin-2-yl]oxy}-4-(2-methoxyethoxy)phenyl]propoxy}-1-methyl-1H-pyrazol-4-yl)acetic acid] returned a melting point of 127 to 129 °C. Also, in the series with KKA^y mice [1] (setting [3]), the inhibition in vivo at 0.005 % is 72%. The inhibition in vivo at 0.005 % in the series with KKA^y mice [1] (setting [4]) is 33%. The pEC50 at PPARγ-RXRα heterodimer is 8.39. Further, the pEC50 at PPARδ-RXRα heterodimer was 7.12.
